The values below are quoted from earlier work in US9961900B2, “Herbicide formulations” (priority 2012, dated 2018).

In brackets after ≈: the same amount, converted by molar mass. Read-outs that look alike come from different tables or passages of the source. Bounds are passed on as bounds.

For series [1] the following is noted: for Hydrolysis DT50: darkness.
Assay in series [2]: not given
The source holds these as a separate data set.

For series [3] the following is noted: for Aqueous photolysis DT50: pH 7.

On to `CCOC(=O)[C@@H](C)Oc1ccc(Oc2nc3ccc(Cl)cc3o2)cc1` [fenoxaprop-p-ethyl, ethyl (R)-2-[4-(6-chloro-1,3-benzoxazol-2-yloxy)phenoxy]propionate], for which the “Hydrolytic DT50” value in series [1] (pH 4, 25° C.) was 2.8 days; in series [1] (pH 5, 25° C.), 19.2 days; in series [1] (pH 7, 25° C.) it was 23.2 days; in series [1] (pH 9, 25° C.), 7), 0.6 d (pH 9) (all at 25° C.) ^+. In addition, the Solubility in acetone entry (20° C.) is “In acetone, ethyl acetate, toluene, >200 g/L;”. The “Solubility in ethyl acetate” value (20° C.) was “In acetone, ethyl acetate, toluene, >200 g/L;”. Also, the Solubility in methanol result (20° C.) is on record as “methanol 43 g/L (all at 20° C.) ^+”. The Solubility in water result (pH 5.8, 25° C.) is “Water: 0.7 mg/L at pH 5.8 (25° C.)”. In addition, in series [2], the “log P (octanol-water)” value is “log P = 4.58 ^+”. For the same molecule, in series [3], the “Aqueous photolysis DT50” value is reported as “Aqueous photolysis DT50 at pH 7: 105 days”.
Turning to `COc1ncc(F)c2nc(S(=O)(=O)Nc3c(F)cccc3F)nn12` [florasulam], the Solubility in acetone entry is recorded as “Acetone: 123,000 mg/L” and the Solubility in water result is on record as “Water: 6360 mg/L”. Also, the Aqueous hydrolysis entry in series [1] (at pH 7 and 20° C.) is listed as “Stable”. In addition, in series [2], the “log P (octanol-water)” value is “log P: −1.22”. The “Photolytic stability DT50” value in series [3] (at pH 7) is “DT50: 156 d”.
For the molecule `COC(=O)[C@@H](C)Oc1ccc(Oc2ncc(C(F)(F)F)cc2Cl)cc1` [haloxyfop-p-methyl, methyl (R)-2-{4-[3-chloro-5-(trifluoromethyl)-2-pyridyloxy]phenoxy}propionate], the DT50 in series [1] (natural water, 20° C.) was 3 days. In addition, in series [1] (pH 4, 20° C.), the DT50 entry was “stable”. Also, the DT50 in series [1] (pH 7, 20° C.) was 43 days. In series [1] (pH 9, 20° C.), the DT50 is 0.63 d (pH 9) (all at 20° C.) ^+. For the setting “25° C.”, the Solubility in acetone was greater than 500 mg/mL, the Solubility in dichloromethane is greater than 500 mg/mL, the “Solubility in ethyl acetate” value was greater than 500 mg/mL and the Solubility in methanol is 76 mg/mL (≈ 202 mM). Moreover, where the note is “25° C.”, the Solubility in n-hexane was 11 mg/mL (≈ 29.3 mM) and the Solubility in toluene was greater than 500 mg/mL. Moreover, under “pH 5, 25° C.”, the Solubility in water is on record as 6.9 mg/L (≈ 0.0184 mM). For the setting “pH 7, 25° C.”, the Solubility in water is given as 7.9 mg/L at pH 7 (all at 25° C.). Where the note is “unbuffered, 25° C.”, the Solubility in water was 9.1 mg/L (≈ 0.0242 mM). For the same molecule, the “log P (octanol-water)” value in series [2] (20° C.) is on record as “log P = 4.0”. Further, in series [3], the “Aqueous photolysis DT50” value was “Aqueous photolysis DT50 at pH 7: 20 days^++”.
Turning to `COC(=O)C(C)Oc1ccc(Oc2ccc(Cl)cc2Cl)cc1` (racemic) [diclofop-methyl, methyl (RS)-2-[4-(2,4-dichlorophenoxy)phenoxy]propionate], the “Aqueous hydrolysis (DT50)” value in series [1] (20° C. and pH 7) is “at 20 °C and pH 7: 31.7 days”. The “Hydrolysis DT50” value in series [1] (pH 5, 25° C.) is 363 days. Moreover, the “Hydrolysis DT50” value in series [1] (pH 7, 25° C.) is listed as 31.7 days. Also, the “Hydrolysis DT50” value in series [1] (pH 9, 25° C.) is 0.52 days. Under “20° C.”, the Solubility in acetone result is “In acetone, toluene, dichloromethane, 500,000 mg/L”; the Solubility in dichloromethane result is recorded as “In acetone, toluene, dichloromethane, 500,000 mg/L”; the “Solubility in n-hexane” value is reported as “mg/L; in n-Hexane: 49,700 mg/L (all at 20° C.) ^++”; the Solubility in toluene entry is given as “In acetone, toluene, dichloromethane, 500,000 mg/L”. Besides, the Solubility in water result (20° C.) is reported as “Water: 0.39 mg/L (20° C.)”. Further, the “log P (octanol-water)” value in series [2] (pH 7, 20° C.) is given as “log P = 4.8”. Besides, the “Aqueous photolysis DT50” value in series [3] is listed as “Aqueous photolysis DT50 at pH 7: 22 days^++”.
